US9789096B2, “Methods and compositions for selective and targeted cancer therapy” (Board of Regents of the University of Texas System, priority 2013, dated 2017)
Like-named read-outs stand apart in the source and are kept apart here.

What was measured:
Type in all cases: cell-based, human
H2009 = experiment: Cell viability dose-response, H2009; details: for IC50: NCI-H2009
Experimental: (§1) FIG. 6A. […] Cell viability is plotted vs. compound concentration. Compound was added to cells plated at 15% confluence in 96-well plates in RPMI-1640 media supplemented with 5% Fetal Bovine Serum and 2 mM L-Glutamine. After 4 days of incubation, ATP levels were measured using Cell Titer Glo (Promega). Data are presented as the average of 2 replicates ±SEM.
(§2) Selectivity may be measured by the half maximal inhibitory concentration (IC50), which, as used herein, is a measure of the effectiveness of a compound in killing cells. This quantitative measure indicates how much of a particular compound is needed to kill a particular cell population by half (e.g., as indicated by the amount of ATP). […] The IC50 can be determined by constructing a dose-response curve. The lower the IC50, the higher the potency, and the greater the difference between IC50 values for different cell lines (e.g., sensitive lines vs. insensitive lines, and sensitive lines vs. normal lines) the greater the selectivity. […]
(§3) With this information, we synthesized and tested a series of small molecules derived in conception from the oxalamide and chromone scaffold including N-acyl ureas, as shown in Tables 6-8. Each compound was tested in a 12-point dose-response study starting at 50 micromolar and decreasing in 3-fold increments to sub-nanomolar concentrations, in duplicate. Additionally, one or more additional cell line was tested in the same way.

H2122 = experiment: Cell viability dose-response, H2122; details: for AC50: 12-point dose-response starting at 50 micromolar
Experimental: as §1, §2, §3

HCC44 = experiment: Cell viability dose-response, HCC44; details: for AC50: 12-point dose-response starting at 50 micromolar
Experimental: as §1, §2, §3

H1819 = experiment: Cell viability dose-response, H1819; details: Homo sapiens; for AC50: NCI-H1819, Table 8, 12-point dose-response starting at 50 micromolar
Experimental: as §1, §2, §3

[1] = NCI-H1819, Tables 3 and 4, read-out: IC50 (uM) vs indicated non-small cell lung cancer cell line H1819
[2] = Homo sapiens, Tables 3 and 4, read-out: IC50 (uM) vs indicated non-small cell lung cancer cell line H2009
[3] = Homo sapiens, NCI-H2122, Table 9, competitor, read-out: IC50 to H2122 cells
[4] = Homo sapiens, NCI-H2122, Tables 3 and 4, read-out: IC50 (uM) vs indicated non-small cell lung cancer cell line H2122
[5] = Homo sapiens, HCC44, Tables 3 and 4, read-out: IC50 (uM) vs indicated non-small cell lung cancer cell line HCC44
[6] = NCI-H1819, 12-point dose-response starting at 50 micromolar, 3-fold increments, in duplicate, read-out: toxicity data, H1819
[7] = Homo sapiens, NCI-H2122, 12-point dose-response starting at 50 micromolar, 3-fold increments, in duplicate, read-out: toxicity data, H2122
[8] = Homo sapiens, 12-point dose-response starting at 50 micromolar, 3-fold increments, in duplicate, read-out: toxicity data, H2009
[9] = Homo sapiens, HCC44, 12-point dose-response starting at 50 micromolar, 3-fold increments, in duplicate, read-out: toxicity data, HCC44
[10] = Homo sapiens, NCI-H2009, Table 8, 12-point dose-response starting at 50 micromolar
[11] = Homo sapiens, NCI-H2122, Table 8

SMILES	IC50 (H2122; [7])	IC50 (H2009; [8])	IC50 (HCC44; [9])	further results
O=c1c(Oc2ccccc2F)coc2cc(OCc3cnn(-c4ccccc4)c3)ccc12 [SW043139-2-A]	–	–	–	AC50 (H2009; Table 8, 12-point dose-response starting at 50 micromolar): 15.9 µM; AC50 (H2122; Table 8): 0.292 µM; AC50 (HCC44; Table 8): 49.5 µM
Nc1nc2cc([N+](=O)[O-])ccc2s1 [SW053525]	–	–	–	IC50 (H1819; [1]): 182 µM; IC50 (H2009; [2]): 1530 µM
O=C(Nc1nc2ccc(O)cc2s1)c1ccc(C(=O)c2ccccc2)cc1 [SW202864-1]	–	–	–	IC50 (H2122; [3]): 0.256 µM; IC50 (H2122; [4]): 30.8 µM; IC50 (HCC44; [5]): 38.6 µM
COc1ccc(CCNC(=O)C(=O)Nc2cncc(C)c2)cc1 [SW208140-1-A]	2.62 µM	–	–	IC50 (H1819; [6]): 16.5 µM
COc1ccc(CCNC(=O)C(=O)Nc2ccc(C(=O)c3ccc(O)cc3)cc2)cc1 [SW208141-1-A]	≥ 49.5 µM	–	–	IC50 (H1819; [6]): ≥ 49.5 µM
COc1ccc(CCNC(=O)NC(=O)c2ccccc2)cc1 [SW208142-1-A]	1.09 µM	–	–	IC50 (H1819; [6]): ≥ 49.5 µM
COc1ccc(CCNC(=O)C(=O)Nc2cccnc2C)cc1 [SW208143-1-A]	≥ 49.5 µM	–	–	IC50 (H1819; [6]): ≥ 49.5 µM
COc1ccc(CCNC(=O)C(=O)Nc2cc(C)cnc2Cl)cc1 [SW208144-1-A]	≥ 49.5 µM	–	–	IC50 (H1819; [6]): ≥ 49.5 µM
COc1ccc(CCNC(=O)C(=O)c2ccccc2)cc1 [SW208145-1-A]	≥ 49.5 µM	–	–	IC50 (H1819; [6]): ≥ 49.5 µM
COc1ccc(CCNC(=O)C(=O)Oc2ccccc2)cc1 [SW208147-1-A]	2.07 µM	–	–	IC50 (H1819; [6]): ≥ 49.5 µM
COc1ccc(CCNC(=O)C(=O)Oc2ccc(Cl)cc2)cc1 [SW208148-1-A]	7.17 µM	–	–	IC50 (H1819; [6]): ≥ 49.5 µM
COc1ccc(CCCNC(=O)C(=O)c2ccccc2)cc1 [SW208152-1-A]	15.2 µM	–	–	IC50 (H1819; [6]): ≥ 49.5 µM
COc1ccc(CCN(C)C(=O)C(=O)Nc2ccc(Cl)cc2)cc1 [SW208153-1-A]	10.5 µM	–	–	IC50 (H1819; [6]): ≥ 49.5 µM
CCCOc1ccc2nc(NC(=O)c3ccc(C(=O)c4ccccc4)cc3)sc2c1 [SW208186]	–	–	–	IC50 (H1819; [1]): 13 µM; IC50 (H2122; [4]): 0.107 µM
C#CCOc1ccc2nc(NC(=O)c3ccc(C(=O)c4ccc(OC)cc4)cc3)sc2c1 [SW208187]	–	–	–	IC50 (H1819; [1]): 0.697 µM; IC50 (H2122; [4]): 0.288 µM
C#CCOc1ccc(C(=O)c2ccc(NC(=O)C(=O)NC(C)Cc3ccc(OC)cc3)cc2)cc1 (centres unmarked) [SW208217-1-A]	≥ 49.5 µM	12.3 µM	≥ 49.5 µM	–
C#CCOc1ccc(C(=O)c2ccc(NC(=O)C(=O)NCC(C)c3ccc(OC)cc3)cc2)cc1 (centres unmarked) [SW208219-1-A]	≥ 49.5 µM	≥ 49.5 µM	≥ 49.5 µM	–
COc1ccc(CCNC(=O)NC(=O)c2ccc(C(=O)c3ccc(OC)cc3)cc2)cc1 [SW208220-1-A]	≥ 49.5 µM	≥ 49.5 µM	≥ 49.5 µM	IC50 (H2122; [3]): 0.8 µM
COc1ccc(CCNC(=O)NC(=O)c2ccc(C(=O)c3ccccc3)cc2)cc1 [SW208222-1-A]	0.105 µM	48 µM	0.241 µM	IC50 (H2122; [3]): 0.142 µM
O=c1c(Oc2ccccc2F)coc2cc(OCc3cn(-c4ccccc4)nn3)ccc12 [SW208232]	–	–	–	AC50 (H2009; [10]): 49.5 µM; AC50 (H2122; [11]): ≥ 49.5 µM; AC50 (HCC44; Homo sapiens, HCC44, Table 8): 49.5 µM
COc1ccc2nc(NC(=O)c3ccc(C(=O)c4ccccc4)cc3)sc2n1 [SW208233-1]	–	–	–	IC50 (H2009; [2]): 49.5 µM; IC50 (H2122; [4]): ≥ 49.5 µM; IC50 (HCC44; [5]): 49.5 µM
COc1ccc(CCNC(=O)NC(=O)c2cccc(-c3ccc(OC)cc3)c2)cc1 [SW208386-1-A]	≥ 49.5 µM	13.1 µM	≥ 49.5 µM	–
COc1ccc(CCNC(=O)NC(=O)c2ccc(-c3ccc(OC)cc3)cc2)cc1 [SW208387-1-A]	0.18 µM	≥ 49.5 µM	0.25 µM	–
COc1ccc(CCNC(=O)NC(=O)c2ccc(Br)cc2)cc1 [SW208388-1-A]	0.16 µM	≥ 49.5 µM	0.42 µM	–
COc1ccc(CCNC(=O)NC(=O)c2cccc(Br)c2)cc1 [SW208389-1-A]	≥ 49.5 µM	35.6 µM	≥ 49.5 µM	–
COC(=O)c1ccc(C(=O)NC(=O)NCCc2ccc(OC)cc2)cc1 [SW208390-1-A]	≥ 49.5 µM	≥ 49.5 µM	≥ 49.5 µM	–
COc1ccc(CCNC(=O)NC(=O)c2ccc(-c3cc4ccccc4c4ccccc34)cc2)cc1 [SW208391-1-A]	≥ 49.5 µM	7.16 µM	≥ 49.5 µM	–

SMILES	IC50 (H2122; [7])	IC50 (H2009; [8])	IC50 (HCC44; [9])	further results
COc1ccc(CCNC(=O)NC(=O)c2cccc(-c3cccc(Cl)c3)c2)cc1 [SW208392-1-A]	6.71 µM	≥ 49.5 µM	≥ 49.5 µM	–
COc1ccc(CCNC(=O)NC(=O)c2ccc(-c3ccccc3)cc2)cc1 [SW208393-1-A]	0.17 µM	≥ 49.5 µM	≥ 49.5 µM	IC50 (H2122; [3]): 0.115 µM
COc1ccc(CCNC(=O)NC(=O)c2cccc(-c3ccccc3)c2)cc1 [SW208394-1-A]	≥ 49.5 µM	≥ 49.5 µM	≥ 49.5 µM	–
COc1ccc(CCNC(=O)NC(=O)c2ccc(C(=O)O)cc2)cc1 [SW208395-1-A]	≥ 49.5 µM	≥ 49.5 µM	≥ 49.5 µM	–
COc1ccc(CCNC(=O)NC(=O)c2cccc(-c3ccncc3)c2)cc1 [SW208396-1-A]	2.23 µM	4.95 µM	≥ 49.5 µM	–
COc1ccc(CCNC(=O)NC(=O)c2ccc(C(=O)N3CCCCC3)cc2)cc1 [SW208397-1-A]	2.28 µM	16.5 µM	≥ 49.5 µM	–
COc1ccc(CCNC(=O)NC(=O)c2ccc(C(=O)Nc3ccccc3)cc2)cc1 [SW208398-1-A]	0.36 µM	16.5 µM	≥ 49.5 µM	–
COc1ccc(CCNC(=O)NC(=O)c2cccc(C)c2)cc1 [SW208399-1-A]	≥ 49.5 µM	16.5 µM	≥ 49.5 µM	–
COc1ccc(CCNC(=O)NC(=O)c2cccc(Cl)c2)cc1 [SW208400-1-A]	≥ 49.5 µM	≥ 49.5 µM	≥ 49.5 µM	–
COc1ccc(CCNC(=O)NC(=O)c2ccc(Cl)cc2)cc1 [SW208401-1-A]	0.15 µM	≥ 49.5 µM	0.54 µM	IC50 (H2122; [3]): 0.09 µM
C#CCOc1ccc2nc(NC(=O)c3ccc(C4(C(F)(F)F)N=N4)cc3)sc2c1 [SW208700-1]	–	–	–	IC50 (H2122; [4]): 7.92 µM; IC50 (HCC44; [5]): 49.5 µM
O=c1c(-c2ccccn2)coc2cc(OCc3cnn(-c4ccccc4)c3)ccc12 [SW208732]	–	–	–	AC50 (H2122; [11]): ≥ 49.5 µM; AC50 (HCC44; Homo sapiens, HCC44, Table 8): 49.5 µM
COc1cccc(-c2coc3cc(OCc4cnn(-c5ccccc5)c4)ccc3c2=O)c1 [SW208733]	–	–	–	AC50 (H2122; [11]): 0.74 µM; AC50 (HCC44; Homo sapiens, HCC44, Table 8): 49.5 µM
O=c1c(-c2ccccc2F)coc2cc(OCc3cnn(-c4ccccc4)c3)ccc12 [SW208734]	–	–	–	AC50 (H2122; [11]): ≥ 49.5 µM; AC50 (HCC44; Homo sapiens, HCC44, Table 8): 49.5 µM
O=c1c(-c2cccc(F)c2)coc2cc(OCc3cnn(-c4ccccc4)c3)ccc12 [SW208735]	–	–	–	AC50 (H2122; [11]): 0.55 µM; AC50 (HCC44; Homo sapiens, HCC44, Table 8): 49.5 µM
O=c1c(-c2ccc(F)cc2)coc2cc(OCc3cnn(-c4ccccc4)c3)ccc12 [SW208737]	–	–	–	AC50 (H2122; [11]): 0.27 µM; AC50 (HCC44; Homo sapiens, HCC44, Table 8): 49.5 µM
O=C(Nc1nc2c(s1)CCCC2)c1ccc(C(=O)c2ccccc2)cc1 [SW208741-1]	–	–	–	IC50 (H2122; [4]): 0.22 µM; IC50 (HCC44; [5]): 3.64 µM
COc1ccc(CCNC(=O)C(=O)Nc2cccc(F)n2)cc1 [SW209136-1-A]	≥ 49.5 µM	–	–	IC50 (H1819; [6]): ≥ 49.5 µM
O=c1c(Cc2ccc(C(F)(F)F)cc2)coc2cc(OCc3cnn(-c4ccccc4)c3)ccc12 [SW209185-1]	–	–	–	AC50 (H1819): 28.6 µM; AC50 (H2122; [11]): 0.085 µM
O=c1c(Cc2cccc(C(F)(F)F)c2)coc2cc(OCc3cnn(-c4ccccc4)c3)ccc12 [SW209186-1]	–	–	–	AC50 (H1819): 49.5 µM; AC50 (H2122; [11]): 0.047 µM
O=c1c(Cc2ccc(F)cc2)coc2cc(OCc3cnn(-c4ccccc4)c3)ccc12 [SW209188-1]	–	–	–	AC50 (H1819): 49.5 µM; AC50 (H2122; [11]): 0.086 µM
O=c1c(Cc2ccccc2F)coc2cc(OCc3cnn(-c4ccccc4)c3)ccc12 [SW209189-1]	–	–	–	AC50 (H1819): 49.5 µM; AC50 (H2122; [11]): 0.08 µM
Cc1ccc(Cc2coc3cc(OCc4cnn(-c5ccccc5)c4)ccc3c2=O)cc1 [SW209190-1]	–	–	–	AC50 (H1819): 49.5 µM; AC50 (H2122; [11]): 0.092 µM
O=c1c(Cc2ccc(Br)cc2)coc2cc(OCc3cnn(-c4ccccc4)c3)ccc12 [SW209191-1]	–	–	–	AC50 (H1819): 49.5 µM; AC50 (H2122; [11]): 0.087 µM
O=c1c(Cc2ccccc2C(F)(F)F)coc2cc(OCc3cnn(-c4ccccc4)c3)ccc12 [SW209192-1]	–	–	–	AC50 (H1819): 49.5 µM; AC50 (H2122; [11]): 0.028 µM
O=c1c(Oc2ccccc2Br)coc2cc(OCc3cnn(-c4ccccc4)c3)ccc12 [SW 208585-1]	–	–	–	AC50 (H2009; [10]): 35 µM; AC50 (H2122; [11]): 0.1 µM
